Consider 4 molecules from patent US8008452B2, “Phosphorylated Ndr kinase” (Novartis Forschungesstiftung, Zweigniederlassung Friedrich …, priority 2002, dated 2011).

The subject of data set [1] is HA-NDR1. Kind of data set: Immunodetection of HA-NDR1 phosphorylated on Ser281 or Thr444 from COS-1 cells. In kind it is cell-based, human. The following applies: for phosphorylation of HA-NDR1 on Ser281: immunoblot with anti-P-S281; for phosphorylation of HA-NDR1 on Thr444: immunoblot with anti-P-T444. The procedure:
Either 1 microgram GST-NDR1 or HA-NDR1 immunoprecipitated from 100 microgram COS-1 detergent extracts as described above was separated on 10% SDS-PAGE and immunoblotted 2 h at RT or overnight at 4° C. with anti-Ser281P antisera (1:1000) in the presence of 50 microg/ml competing unphosphopeptide or anti-Thr444P purified antibody (1:500). Both antibodies were detected with horseradish peroxidase-conjugated donkey anti-rabbit Ig antibody (Amersham biosciences) and developed by ECL (chemiluminescence; Amersham Pharmacia Biotech).
To examine this possibility, extracts from transfected COS-1 cells were analyzed with the anti-Ser281P and anti-Thr444P antisera. Protein extracts (10 microg) from transfected COS-1 cells were immunoblotted with 12CA5 to verify similar expression levels of each HA-NDR1 construct. For the analysis of phosphorylation status, 12CA5-immunoprecipitated HA-NDR1 variants (out of 100 microg protein extract) were analysed by immunoblotting with phosphospecific antibodies directed against P-S281 or P-T444.
Protein extracts (10 microg) from mock- and HA-NDR1-transfected COS-1 cells were also immunoblotted with 12CA5 to verify equal expression levels of HA-NDR1 construct. For the analysis of phosphorylation status, 12CA5-immunoprecipitated HA-NDR1 (out of 100 microgram protein extract) was analysed by immunoblotting with phosphospecific antibodies directed against P-S281 or P-T444.

The test system of data set [2] is HA-NDR1. In words: HA-NDR1 kinase assay on 12CA5 immunoprecipitates from transfected, treated COS-1 cells. Type of data set: cell-based, human. Set-up: dose or concentration left out as unconfirmed.
For data set [3], the system named is HA-NDR1. The description is as above. Type of data set: cell-based, human. Set-up: kinase activity of HA-NDR1 variants, −OA: unit not given here. The protocol: In some experiments, the cells were treated for 60 min with 1 microM okadaic acid in 0.1% N,N-dimethylformamide (DMF) (Alexis Corp.), 50 microM BAPTA-AM (1,2-bis (o-aminophenoxy) ethane-N,N,N′,N′-tetraacetic acid tetra (acetoxy-methyl)ester) in 0.1% diimethylsulfoxide (DMSO; Sigma), or 20 microM thapsigargin in 0.1% DMSO (Alomone) 24 hours after transfection.
Transfected and treated COS-1 cells were washed once with ice-cold PBS, and harvested by rubber policeman in 1 ml ice-cold PBS containing 1 mM Na3VO4 and 20 mM beta-glycerophosphate before lysis in 500 microliters of IP buffer (20 mM Tris-HCl pH 8.0, 150 mM NaCl, 1% Nonidet P-40, 10% glycerol, 1 mM Na3VO4, 20 mM beta-glycerolphosphate, 1 microM microcystin-LR, 50 mM NaF, 0.5 mM PMSF, 4 microM leupeptin, 1 mM benzamidine, and 1 tablet/10 ml IP of Complete protease inhibitors (Roche)). Lysates were centrifuged at 20 000 g for 20 min and triplicate aliquots (200 microg) of supernatant were precleared with protein A-Sepharose (Amersham Pharmacia Biotech) for 60 min and mixed subsequently for 3 h at 4° C. with 12CA5 antibody prebound to protein A-Sepharose (˜1 microg antibody bound to 2 microl beads). The beads were then washed twice with IP buffer, once for 10 min with IP buffer containing 1 M NaCl, once again for 10 min with IP buffer, and finally twice with 20 mM Tris-HCl pH 7.5 containing 4 microM leupeptin and 1 mM benzamidine. Thereafter, beads were resuspended in 30 microliters buffer containing 20 mM Tris-HCl pH 7.5, 10 mM MgCl2, 1 mM DTT, 100 microM [gamma-^32P]ATP (˜0.1 microCi/microliter), 1 microM cAMP-dependent protein kinase inhibitor peptide PKI (Bachem), 4 microM leupeptin, 1 mM benzamidine, 1 microM microcystin-LR, and 1 mM NDR1 substrate peptide ([…]). After 60 min incubation at 30° C., 15 microliters of supernatant were removed, and phosphate incorporation into the substrate peptide determined as described for GST-NDR1 above.
COS-1 cells expressing either wild type HA-NDR1 or the indicated mutants were treated for 1 h with 1 microM okadaic acid or with solvent alone. HA-tagged NDR kinase variants were then immunoprecipitated (out of 100 microgram of detergent extracts) with 12CA5 monoclonal antibody and assayed for kinase activity by a peptide kinase assay as described above.
Mock-transfected or HA-NDR1-expressing COS-1 cells were treated for 1 h with […], 50 microM BAPTA-AM, and […] or with solvent (0.1% DMF or 0.1% DMSO) alone. 12CA5 immunoprecipitates (out of 100 microgram protein extract) were then assayed using the peptide kinase assay for NDR1 kinase activity.
To test whether hMOB1 plays a role in NDR activation, myc-hMOB1 or the empty vector was cotransfected with HA-NDR1 in COS1 cells and treated with OA. 12CA5 immunoprecipitates were then assayed using the peptide kinase assay for HA-NDR kinase activity. […] GST-MOB and GST respectively was added to immunoprecipitated HA-NDR and kinase reaction were performed. The reactions were resolved on a 10% SDS PAGE and the radioactivity visualised by using a phosphoimager.

For the next data set, the system named is myc-hMOB1. In words: Co-immunoprecipitation of HA-NDR and myc-hMOB1 from COS-1 cells. Type of data set: binding, human. The note with it: COS1 cells cotransfected with HA-NDR and myc-hMOB1. The protocol:
HA-tagged hNDR and myc-tagged hMOB1 were cotransfected in COS1 cells, which were stimulated with okadaic acid or solvent alone. After cell lysis and extract preparation, HA-NDR was immunoprecipitated and co-immunoprecipitated myc-hMOB1 detected or Myc-hMOB1 was immunoprecipitated and co-immunoprecipitated HA-NDR detected.
HA-NDR, wt and mutants, and myc-hMOB1 were cotransfected into COS-1 cells and the cells were treated with OA prior to lysis. HA-NDR was immunoprecipitated and the coimmunoprecipitated myc-hMOB1 detected. […] Furthermore, the two important in vivo phosphorylation sites of NDR, serine-281 in the activation segment and the hydrophobic motif site threonine-444 in the C-terminal regulatory domain were tested, as well as the threonine 74 site in the N-terminal regulatory domain, for their role in NDR-MOB interaction.
HA-NDR N-terminal point mutants and myc-mob1 were co-transfected into COS1 cells which were treated with OA prior to lysis. HA-NDR mutants were immunoprecipitated and coimmunoprecipitated myc-hMOB1 detected.
In this Example, the effect of treatment of COS1 cells with BAPTA-AM on the NDR-MOB Interaction was determined. HA-NDR and myc-MOB1 was cotransfected into COS1 cells and the cells were treated with BAPTA-AM and OA or the solvents alone prior to lysis. HA-NDR was immunoprecipitated and co-immunoprecipitated myc-MOB1 detected. The kinase activity of the HA-NDR immunoprecipitates was measured in a peptide kinase assay.

Another data set has as its system HA-NDR2. Kind of data set: HA-NDR2 protein kinase activity after cell treatment with okadaic acid or solvent. In kind it is cell-based, human. The note with it: cell treatment with OA versus solvent alone. The protocol: All other procedures (including bacterial expression, kinase assays, immunodetection and mass spectrometry) were carried out essentially as described in the Methodology section above.
To further examine this NDR2 mutants were created in which either Ser-282 or Thr-442 were replaced by an alanine. Additionally an in vitro phosphorylation site mutant T75A essentially as described above, and a kinase dead mutant K119A was created for Ndr2. The protein kinase activity of each of these mutants was measured following cell treatment with okadaic acid (OA) or solvent alone. HA-NDR2-WT was potently stimulated (˜10-fold) by OA.

For data set [4], the system named is GST-NDR1. In words: GST-NDR1 kinase assay (peptide kinase assay). In kind it is biochemical, human. Set-up: Specific activity of GST-NDR1 variants, CTRL / Specific activity of GST-NDR1 variants, −S100B / Specific activity of GST-NDR1 variants, +S100B: unit not given here. The protocol: 1 microgram of purified recombinant GST-NDR1 wild type and mutants (without further treatment or autophosphorylated for 2 h in the presence or absence of 1 mM CaCl2 and […] (Sigma)) were assayed in 20 microliter of reaction mixture containing 20 mM Tris-HCl pH 7.5, 10 mM MgCl2, 1 mM DTT, 100 microM [gamma-^32P]ATP (˜0.5 microCi/microliter), and 1 mM NDR1 substrate peptide ([…]; SEQ ID NO:22). After 30 mins incubation at 30° C., reactions were stopped with 50 mM EDTA, and 10 microliters of reaction mixture were spotted onto 2 cm^2 squares of P81 phosphocellulose paper (Whatman). These were subsequently washed for 4×5 min and 3×20 min in 1% phosphoric acid and once in acetone before counting in a liquid scintillation counter. One unit of NDR1 activity was defined as the amount which catalyses the phosphorylation of 1 nmol peptide substrate in 1 min.
Specific activity of GST-NDR1 mutants was also measured by a peptide kinase assay as described above. For this purpose, 1 microgram of purified GST-NDR1 wild type and alanine mutants were left without further treatment or autophosphorylated for 2 h in the presence or absence of 1 mM CaCl2 and […].

For data set [5], the target named is T1, GST-NDR1 (Homo sapiens, UniProt Q15208).
T1 construct: made in house; host or cells: E. coli BL21-DE3-pRep4
In words: GST-NDR1 in vitro autophosphorylation, incorporated 32P by Cerenkov counting. The note with it: in vitro. In kind it is biochemical. The protocol: (§1) BL21-DE3-pRep4 E. coli strain was transformed with the pGEX-2T_NDR1 wild type or mutant plasmids. BL21-DE3 is a protease-deficient E. coli strain and pRep4 is a Laclq repressor-bearing plasmid both available commercially. Optionally, if desired, an E. coli strain comprising GroESL can be used, which expresses a chaperone protein that stabilizes the kinase. Mid-logarithmic phase cells were induced with 0.5 mM isopropyl beta-D-thiogalactopyranoside (IPTG) for 4 hours at 30° C. Bacteria were lysed using a French press in the presence of 1 mg/ml lysosyme, and the fusion proteins were purified on glutathione-agarose (Amersham Pharmacia Biotech) as described by the manufacturers. Recombinant proteins were assayed for kinase activity as described below and autophosphorylation was determined after SDS-PAGE separation either by Cerenkov counting or by exposure to a PhosphorImager screen followed by analysis with ImageQuant software (Molecular Dynamics).
(§2) In brief, 1 microgram of purified GST-NDR1 (in solution ˜0.5 microM) wild type, kinase dead (K118A), and alanine mutants of phosphorylation residues Thr74, Ser281, and Thr444 were autophosphorylated for 2 hours in vitro without further additions or in the presence of 1 mM CaCl2 and 10 microM bovine S100B. Proteins were visualized on SDS gels using Coomassie Blue R-350 stained SDS-PAGE gel, and [gamma-^32P]ATP-labelled proteins were visualized by autoradiography of the gels developed on a Phosphorimager screen. The amount of incorporated ^32P was quantified by Cerenkov counting.

Data set [6] relates to GST-NDR1. Described as above. Type of data set: biochemical, human. The note with it: GST-NDR1 variant. The procedure: as §1, §2

Entries after “also recorded” stand apart in the source; their conditions may differ.

T1 sequence (Q15208 2-465): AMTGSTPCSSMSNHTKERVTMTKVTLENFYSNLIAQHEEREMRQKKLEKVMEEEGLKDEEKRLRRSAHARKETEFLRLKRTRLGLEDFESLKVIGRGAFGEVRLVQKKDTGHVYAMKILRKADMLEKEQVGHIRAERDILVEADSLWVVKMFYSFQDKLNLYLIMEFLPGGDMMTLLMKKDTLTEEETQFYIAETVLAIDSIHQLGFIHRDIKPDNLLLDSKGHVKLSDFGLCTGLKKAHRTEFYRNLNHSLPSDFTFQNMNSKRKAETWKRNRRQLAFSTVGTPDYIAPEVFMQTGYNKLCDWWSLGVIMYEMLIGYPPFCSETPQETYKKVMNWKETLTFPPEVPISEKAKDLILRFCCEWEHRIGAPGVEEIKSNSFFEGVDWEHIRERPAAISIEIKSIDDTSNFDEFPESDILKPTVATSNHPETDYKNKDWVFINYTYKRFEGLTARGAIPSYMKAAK

On to `CC(=O)OCOC(=O)CN(CC(=O)OCOC(C)=O)c1ccccc1OCCOc1ccccc1N(CC(=O)OCOC(C)=O)CC(=O)OCOC(C)=O` [BAPTA-AM, 1,2-bis (o-aminophenoxy) ethane-N,N,N′,N′-tetraacetic acid tetra (acetoxy-methyl)ester], for which, in the data set on HA-NDR1 [1], the “phosphorylation of HA-NDR1 on Ser281” value is listed as “declined almost to the baseline” and the “phosphorylation of HA-NDR1 on Thr444” value is “declined almost to the baseline”. Moreover, the “effect on okadaic acid-stimulated NDR1 activity” value with HA-NDR1 [2] is recorded as “dramatically reduced; also recorded: reduces OA induced NDR kinase activation”. In addition, the “Spec. Activity (NDR1 kinase activity)” value in the data set on HA-NDR1 [3] came out at 0.2676. For the same molecule, in the data set on myc-hMOB1, the “effect of cell treatment on NDR-MOB interaction” value is “reduction of the NDR-MOB interaction”.
As for `C=C1[C@@H](O)[C@@H]2O[C@]3(CC[C@H](/C=C/[C@@H](C)[C@@H]4CC(C)=C[C@@]5(O[C@H](C[C@@](C)(O)C(=O)O)CC[C@H]5O)O4)O3)CC[C@H]2O[C@@H]1[C@@H](O)C[C@H](C)[C@H]1O[C@@]2(CCCCO2)CC[C@H]1C` [okadaic acid, reference compound], in the data set with HA-NDR1 [1], the “phosphorylation of HA-NDR1 on Ser281” value is recorded as “further enhanced” and the “phosphorylation of HA-NDR1 on Thr444” value was “only became phosphorylated after okadaic acid treatment”. Besides, the “Spec. Activity (NDR1 kinase activity)” value with HA-NDR1 [3] turned out to be 10.142. Further, the “effect of cell treatment on NDR-MOB interaction” value in the data set on myc-hMOB1 is recorded as “dependent on stimulation of the cells with OA”. Also, in the data set with HA-NDR2, the “stimulation of HA-NDR2-WT kinase activity” value is reported as about 10 fold.
Regarding `C/C=C(/C)C(=O)O[C@H]1C(C)=C2[C@H]([C@@H]1OC(=O)CCCCCCC)[C@@](C)(OC(C)=O)C[C@H](OC(=O)CCC)[C@@]1(O)[C@H]2OC(=O)[C@@]1(C)O` [thapsigargin], in the data set with HA-NDR1 [1], the “phosphorylation of HA-NDR1 on Ser281” value was “rescued” and the “phosphorylation of HA-NDR1 on Thr444” value is recorded as “rescued”. The “effect on okadaic acid-stimulated NDR1 activity” value in the data set with HA-NDR1 [2] is recorded as “rescued”.
With “WT: human NDR1 wild type; GST fusion in the 2nd table, the 3rd table, HA-tagged in the 4th table”, the “kinase activity of HA-NDR1 variants, +OA” value with HA-NDR1 [3] (COS-1 cells, 1 microM okadaic acid 1 h) is recorded as 10.8852. Further, the “kinase activity of HA-NDR1 variants, −OA” value with HA-NDR1 [3] (COS-1 cells, solvent alone 1 h) came to 0.3532. In the data set with GST-NDR1 [4] (autophosphorylated 2 h in the absence of CaCl2 and S100B), the “Specific activity of GST-NDR1 variants, −S100B” value was determined as 4.106. Moreover, the “Specific activity of GST-NDR1 variants, +S100B” value with GST-NDR1 [4] (autophosphorylated 2 h in the presence of 1 mM CaCl2 and 10 mM bovine S100B) came out at 21.348. Besides, the “Specific activity of GST-NDR1 variants, CTRL” value in the data set with GST-NDR1 [4] (left without further treatment) was determined as 1. Further, the “autophosphorylation of wild-type GST-NDR1 in vitro” value with GST-NDR1 [5] is recorded as “up to 0.4 pmol ATP/pmol GST-NDR1”. Further, the “amount of incorporated 32P (autophosphorylation), −S100B” value with GST-NDR1 [6] (1 microgram, autophosphorylated 2 hours without further additions, pmol ATP/pmol GST-NDR1) is 0.1688. Moreover, in the data set with GST-NDR1 [6] (2 hours in the presence of 1 mM CaCl2 and 10 microM bovine S100B, in pmol ATP/pmol GST-NDR1), the “amount of incorporated 32P (autophosphorylation), +S100B” value was found to be 0.3512.
